Literature values as cited in paper PMC10401071 (Cancer Discovery, 2023).

System: WDLPS and DDLPS
Conditions: patients with WDLPS and DDLPS; cited from earlier work

Q: For `COc1cccc2c1C(=O)c1c(O)c3c(c(O)c1C2=O)C[C@@](O)(C(=O)CO)C[C@@H]3O[C@H]1C[C@H](N)[C@H](O)[C@H](C)O1` [doxorubicin], which overall survival is on record?
A: ~9 months
